One assay relates to MDA-MB-435. Nature of the assay: Cytotoxicity against human MDA-MB-435 cells assessed as reduction in cell viability measured after 72 hrs by celltiter-blue cell viability assay. The assay is classed as functional, cell-based. To be noted: MDA-MB-435, 72 h. Background: Alamar Blue is a resazurin reagent that responds to reducing activity.
The next assay concerns OVCAR-3. Nature of the assay: Cytotoxicity against human OVCAR-3 cells assessed as reduction in cell viability measured after 72 hrs by celltiter-blue cell viability assay. Particulars: OVCAR-3, 72 h. The assay is classed as functional, cell-based.

For orientation: IC50 means the concentration at which inhibition is half-maximal. Consider `COC(=O)O[C@H]1C[C@H]2O[C@@H]2c2cc(OC)cc(O)c2C(=O)O[C@@H](C)C/C=C\C(=O)[C@H]1O`, for which the IC50 in the assay on MDA-MB-435 and in the assay on OVCAR-3 was 1700 nM each time.
For `COc1cc(O)c2c(c1)[C@H]1O[C@@H]1C[C@H](OC(C)=O)[C@H](O)C(=O)/C=C\C[C@H](C)OC2=O`, the IC50 in the assay on MDA-MB-435 and in the assay on OVCAR-3 was 1700 nM in each case.
As for `COC(=O)O[C@@H]1C(=O)/C=C\C[C@H](C)OC(=O)c2c(O)cc(OC)cc2[C@H]2O[C@@H]2C[C@@H]1O`, the half-inhibitory concentration (IC50) in the assay on MDA-MB-435 and in the assay with OVCAR-3 was 1700 nM throughout.
As for `COc1cc(O)c2c(c1)[C@H]1O[C@@H]1C[C@H](OC(=O)CCC(=O)O)[C@H](O)C(=O)/C=C\C[C@H](C)OC2=O`, the concentration for half-maximal inhibition (IC50) in the assay on MDA-MB-435 and with OVCAR-3 was 1700 nM in each case.
Turning to `C=CCOC(=O)O[C@H]1C[C@H]2O[C@@H]2c2cc(OC)cc(O)c2C(=O)O[C@@H](C)C/C=C\C(=O)[C@H]1O`, the IC50 in the assay with MDA-MB-435 and with OVCAR-3 was 1700 nM in each case.
For `COc1cc(O)c2c(c1)[C@H]1O[C@@H]1C[C@H](OC(=O)/C=C\C(=O)O)[C@H](OC(=O)/C=C\C(=O)O)C(=O)/C=C\C[C@H](C)OC2=O`, the IC50 with MDA-MB-435 and with OVCAR-3 was 1700 nM each time.
Take `COc1cc(O)c2c(c1)[C@H]1O[C@@H]1C[C@H](O)[C@H](OC(C)=O)C(=O)/C=C\C[C@H](C)OC2=O`: the IC50 with MDA-MB-435 and in the assay on OVCAR-3 was 1700 nM each time.
For `C=CCOC(=O)O[C@@H]1C(=O)/C=C\C[C@H](C)OC(=O)c2c(O)cc(OC)cc2[C@H]2O[C@@H]2C[C@@H]1O`, the IC50 in the assay with MDA-MB-435 and in the assay on OVCAR-3 was 1700 nM throughout.
Consider `COc1cc(O)c2c(c1)[C@H]1O[C@@H]1C[C@H](OC(=O)/C=C\C(=O)O)[C@H](O)C(=O)/C=C\C[C@H](C)OC2=O`, for which the IC50 in the assay on MDA-MB-435 and with OVCAR-3 was 1700 nM each time.
As for `CCOC(=O)O[C@H]1C[C@H]2O[C@@H]2c2cc(OC)cc(O)c2C(=O)O[C@@H](C)C/C=C\C(=O)[C@H]1O`, the half-inhibitory concentration (IC50) with MDA-MB-435 and with OVCAR-3 was 1700 nM each time.
Take `COc1cc(O)c2c(c1)[C@H]1O[C@@H]1C[C@H](O)[C@H](O)C(=O)/C=C\C[C@H](C)OC2=O` [HYPOTHEMYCIN]: the half-maximal inhibitory concentration (IC50) in the assay on MDA-MB-435 was 1900 nM; with OVCAR-3 it was 2600 nM.
